Laboratory results reported in patent US20140004209A1, “AUTOPHAGY INDUCER AND INHIBITOR COMBINATION THERAPY FOR THE TREATMENT OF NEOPLASMS” (GENENTECH, INC., priority 2010, published 2014).
Entries after “also recorded” stand apart in the source; their conditions may differ. Like-named read-outs stand apart in the source and are kept apart here.

Tests used:
PC3 cells [1] = assay: Autophagy markers in PC3 cells (EM AVs, GFP-LC3, LC3-II/LC3-I, MDC, AO); type: cell-based, human
PC3 cells [2] = assay: Mitochondrial superoxide (MitoSOX red) and cellular ROS in PC3 cells; type: cell-based, human
Description: (B) PC3 cells treated as in A were stained with the Image-iT LIVE green ROS Detection kit and examined by fluorescence microscopy at 24 h. […] (C) Quantification of MitoSOX red and ROS green fluorescence intensities by flow cytometry at 24 h. Cells were treated as in A and B. Error bars represent SEM (n=3).
Because mitochondria are the primary intracellular source of superoxide (O2^−) generation, we analyzed O2^− production using MitoSOX red, an O2^− indicator that accumulates in the mitochondria as a function of membrane potential and fluoresces upon oxidation and subsequent binding to DNA.

PC3 cells [3] = assay: Mitochondrial membrane potential (MitoPT dye) in PC3 cells; type: cell-based, human; conditions: for mitochondrial membrane potential, II-4 (Akti-1/2) and CQ: 3 μM Akti-1/2, 10 μM CQ
Description: FIG. 21. […] Images at 48 h are shown. […] Merged images between red and green channels are also shown (MitoPT-M). Scale bar: 20 μm. (B) Percentage of cells showing red punctate stains and diffuse green stains from treatments described in (A). >86 cells from two random fields of fluorescent images of each treatment were counted. Error bars represent standard deviations between the two fields. […] Total fluorescence intensity from all cells was collected using the Isocyte (Blueshift Biotechnologies), a laser scanning imager. Green fluorescence intensity is collected with a 488 nm laser and a 510-540 nm band pass filter, and normalized to cell number determined by Hoechst staining using a 405 nm laser and a 430-480 nm band pass filter. Error bars, standard deviation between two independent experiments. (D) Representative images of the green ROS signals and bright field (BF) taken under a Nikon TE300 inverted microscope. […] Scale bar: 20 μm.
Cell Culture and Reagents: The PTEN^−/− and PTEN^+/+ MEFs were maintained as previously described (Sun, H., R. Lesche, D. M. Li, J. Liliental, H. Zhang, J. Gao, N. Gavrilova, B. Mueller, X. Liu, and H. Wu, (1999), PTEN modulates cell cycle progression and cell survival by regulating phosphatidylinositol 3,4,5,-trisphosphate and Akt/protein kinase B signaling pathway. Proc Natl Acad Sci USA. 96:6199-204). The PC3 and U87MG cells were maintained at 37° C. and 5% CO2 in DMEM/Ham's F-12 (1:1) containing 10% tetracycline-free fetal bovine serum. II-4 was from Calbiochem (Akt inhibitor VIII) (Barnett, S. F., D. Defeo-Jones, S. Fu, P. J. Hancock, K. M. Haskell, R. E. Jones, J. A. Kahana, A. M. Kral, K. Leander, L. L. Lee, J. Malinowski, E. M. McAvoy, D. D. Nahas, R. G. Robinson, and H. E. Huber, (2005), Identification and characterization of pleckstrin-homology-domain-dependent and isoenzyme-specific Akt inhibitors. Biochem J. 385:399-408). […] Image-iT LIVE Green Reactive Oxygen Species Detection Kit was purchased from Molecular Probes. MitoPT Mitochondria Permeability Transition Detection Kit was purchased from Immunochemistry Technologies, LLC.

PTEN−/− and PTEN+/+ MEFs = assay: Viability of PTEN−/− and PTEN+/+ MEFs (PI exclusion); type: cell-based, mouse; conditions: 5 μM each, 1% FBS
Description: MEFs were treated with 5 μM each of II-4 and CQ under 1% FBS, and cell viability was determined at days 0, 2, and 3 by PI exclusion. Error bars represent SEM (n=3). (B) Mean tumor volumes of PC3 xenograft tumors treated daily with vehicle (Veh), Dox only, CQ only, or both Dox and CQ over a 28-d period. The vehicle and vehicle+CQ groups were followed for up to 18 d before terminated because of weight loss from the tumor burdens. Error bars represent SEM (n=10 tumors in each cohort). (C) Scatterplot of the tumor volumes in the Dox only and Dox+CQ groups on day 28 (P=0.05). Horizontal bars indicate mean tumor volumes. Numbers of tumors with complete remission (CR, dashed line) are indicated for each group. […]
Cell viability and cell cycle analysis. Cell number and viability was measured using trypan blue exclusion assay using a Vi-Cell Analyzer (Beckman Coulter), or labeled with 1 μg/ml PI in PBS/1% BSA followed by cytofluorometric analysis with a fluorescence-activated cell sorter (FACS) (Becton Dickinson). […] Caspase activation was analyzed using a Caspase-Glo 3/7 Assay kit (Promega). For cell cycle analysis, cells were fixed with drop-wise addition of chilled 70% ethanol, washed with PBS and resuspended in staining solution containing 50 μg/ml PI and 60 units of RNAse A. DNA content was analyzed by flow cytometry using the FlowJo and ModFit software (Becton Dickinson).

O=c1[nH]c2ccccc2n1C1CCN(Cc2ccc(-c3nc4cc5nc[nH]c5cc4nc3-c3ccccc3)cc2)CC1 [II-4, 1-(1-(4-(7-phenyl-1H-imidazo[4,5-g]quinoxalin-6-yl)benzyl)piperidin-4-yl)-1H-benzo[d]imidazol-2 (3H)-one]
AVO accumulation and apoptotic nuclei, II-4 and CQ (multispectral imaging flow cytometry) (PC3 cells [1]): further increase in AVO accumulation in live cells and a concomitant increase in cells with condensed apoptotic nuclei | AVO accumulation, agent alone (multispectral imaging flow cytometry) (PC3 cells [1]): induced AVO accumulation without significant loss of viability | AVs and nuclei by EM, Akti-1/2 and CQ (PC3 cells [1]; 5 μM Akti-1/2, 10 μM CQ, 0.5% FBS): accumulation of larger AVs and the appearance apoptotic nuclei | accumulation of LC3-II (PC3 cells [1]; II-4 alone): significant accumulation of LC3-II within 24 h | accumulation of LC3-II, with CQ cotreatment (PC3 cells [1]; II-4 and 10 μM CQ): further enhanced upon CQ cotreatment | induction of AV accumulation / autophagy, agent alone (PC3 cells [1]; listed as Akti-1/2): induced overt autophagy; also recorded: induced accumulation of AVs | MitoSOX fluorescence, agent alone (PC3 cells [2]): increased MitoSOX fluorescence within 6 h | cellular ROS levels, II-4 (Akti-1/2) with CQ (PC3 cells [2]): cotreatment with CQ caused a prolonged increase in ROS levels | cellular ROS signal, agent alone (PC3 cells [2]): attenuated within 48 h | MitoSOX fluorescence, II-4 and CQ (PC3 cells [2]; 3 μM II-4, 10 μM CQ): significant increase in fluorescence intensity | cellular ROS levels, II-4 (Akti-1/2) with CQ (PC3 cells [2]; listed as Akti-1/2): caused a prolonged increase in vacuolar fluorescence | cellular ROS signal, agent alone (PC3 cells [2]; listed as Akti-1/2): first induced a homogeneous increase in ROS level, but by 48 hours the fluorescence became significantly reduced | mitochondrial membrane potential, II-4 (Akti-1/2) and CQ (PC3 cells [3]): almost complete loss of mitochondrial potential | mitochondrial membrane potential, II-4 (Akti-1/2) and CQ (PC3 cells [3]; listed as Akti-1/2): CQ enhanced Akti-1/2-induced mitochondria depolarization | mitochondrial membrane potential, agent alone (PC3 cells [3]; 0.5% FBS): caused a decrease in mitochondrial membrane potential | sensitivity of PTEN−/− vs PTEN+/+ MEFs to combined II-4 and CQ (PTEN−/− and PTEN+/+ MEFs): significantly more sensitive
